Laboratory results from US6828327B2, “Macroheterocylic compounds useful as kinase inhibitors” (Ortho-McNeil Pharmaceutical, Inc., priority 2000, dated 2004).

Experiments:
GSK 3-β = biological target: T1, GSK 3-β (Oryctolagus cuniculus, UniProt G1T8E2); test: Glycogen Synthase Kinase 3-β Assay; assay type: biochemical, rabbit; details: inhibition value, recombinant rabbit GSK 3-β, PPI-2 substrate
T1 construct: purchased New England Biolabs, Beverly Mass
Description: The inhibitory activity of a compound against Glycogen Synthase Kinase 3-β (GSK 3-β) activity was assessed using a recombinant rabbit GSK 3-β according to the procedure below.
The mixture was reacted for 90 minutes at 30° C. to allow phosphorylation of the PPI-2 protein and then the protein in the reaction was precipitated using 10% trichloroacetic acid (TCA). The precipitated protein was collected on filter plates (MultiScreen-DV, Millipore, Bedford Mass.), which were subsequently washed. Finally, the radioactivity was quantified using a TopCount Scintillation Counter (Packard, Meridian Conn.). […] Staurosporine or Valproate (both available from several commercial sources), known inhibitors of GSK-3-β, were used as a positive control for screening.

EGF-R = biological target: T2, EGF-R (Homo sapiens, UniProt P00533); test: Biotinylated Peptide Substrate Assay, EGF-R; assay type: biochemical; details: read-out: EGF-R Kinase Assay (IC50 uM)
T2 construct: is purified from human A431 cell membranes; purchased Sigma, St. Louis, Mo; E3641; host or cells: human A431 cell membranes (endogenous receptor)
T2 sequence (P00533 25-1210): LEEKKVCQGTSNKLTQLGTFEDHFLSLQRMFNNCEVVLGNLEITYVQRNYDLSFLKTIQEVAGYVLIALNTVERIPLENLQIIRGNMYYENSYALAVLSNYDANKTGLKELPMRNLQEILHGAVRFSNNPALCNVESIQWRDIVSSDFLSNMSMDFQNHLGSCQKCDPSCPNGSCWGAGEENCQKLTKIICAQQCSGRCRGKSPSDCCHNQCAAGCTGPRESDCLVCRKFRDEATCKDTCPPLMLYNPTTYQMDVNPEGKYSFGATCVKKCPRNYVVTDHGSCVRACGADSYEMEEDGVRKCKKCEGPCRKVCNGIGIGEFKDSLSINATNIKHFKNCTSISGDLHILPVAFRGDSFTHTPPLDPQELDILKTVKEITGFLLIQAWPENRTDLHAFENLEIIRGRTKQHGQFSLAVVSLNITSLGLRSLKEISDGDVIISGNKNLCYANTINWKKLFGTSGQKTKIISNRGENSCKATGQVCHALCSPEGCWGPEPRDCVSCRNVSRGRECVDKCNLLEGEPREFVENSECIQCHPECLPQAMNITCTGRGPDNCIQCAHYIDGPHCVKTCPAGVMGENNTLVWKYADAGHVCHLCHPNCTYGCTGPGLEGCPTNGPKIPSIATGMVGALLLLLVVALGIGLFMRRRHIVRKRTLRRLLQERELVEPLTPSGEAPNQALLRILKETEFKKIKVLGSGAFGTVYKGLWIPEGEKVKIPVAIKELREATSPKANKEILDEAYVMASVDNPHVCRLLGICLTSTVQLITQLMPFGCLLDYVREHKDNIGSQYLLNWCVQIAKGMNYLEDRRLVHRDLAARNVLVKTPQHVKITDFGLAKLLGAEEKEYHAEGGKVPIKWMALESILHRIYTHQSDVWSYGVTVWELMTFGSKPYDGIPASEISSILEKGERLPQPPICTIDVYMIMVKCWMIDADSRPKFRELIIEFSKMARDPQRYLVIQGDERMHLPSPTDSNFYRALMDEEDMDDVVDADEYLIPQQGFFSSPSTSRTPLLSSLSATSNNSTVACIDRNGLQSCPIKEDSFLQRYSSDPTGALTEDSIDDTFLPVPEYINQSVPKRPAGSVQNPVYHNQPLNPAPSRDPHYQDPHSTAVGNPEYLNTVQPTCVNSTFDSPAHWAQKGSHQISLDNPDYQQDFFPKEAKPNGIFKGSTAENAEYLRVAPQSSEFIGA
Description: (§1) Assays to test inhibition of a compound for other kinases were preformed using methods that measure the amount of phosphorylation of a biotinylated peptide substrate. Biotinylated peptide substrates were selected from the literature as appropriate for the enzyme being evaluated.
(§2) A kinase reaction mix was prepared in 50 mM Tris-HCl pH=8, 10 mM MgCl2, 0.1 mM Na3VO4, 1 mM DTT, 10 μM ATP, 0.25-1 μM biotinylated peptide substrate, 0.2-0.8 μCuries per well ^33P-γ-ATP (2000-3000 Ci/mmol). Assay conditions vary slightly for each protein kinase, for example, insulin receptor kinase requires 10 mM MnCl2 for activity and Calmodulin-dependent protein kinase requires calmodulin and 10 mM CaCl2. The reaction mixture was dispensed into the wells of a streptavidin coated Flashplate and 1 μL drug stock in 100% DMSO was added to a 100 μL reaction volume resulting in a final concentration of 1% DMSO in the reaction. Enzyme was diluted in 50 mM Tris-HCl pH=8.0, 0.1% BSA and added to each well. The reaction was incubated for one hour at 30° C. in the presence of compound. After one hour the reaction mix was aspirated from the plate and the plate was washed with PBS containing 100 mM EDTA. The plate was read on a scintillation counter to determine ^33P-γ-ATP incorporated into the immobilized peptide. Test compounds were assayed in duplicate at 8 concentrations (100 uM, 10 uM, 1 uM, 100 nM, 10 nM, 1 nM, 100 pM, 10 pM). A maximum and minimum signal for the assay was determined on each plate.
(§3) The IC50 was calculated from the dose response curve of the percent inhibition of the maximum signal in the assay according to the formula:
(§4) % Inhibition=((MS−BS)/(TCS−BS))×100%
(§5) where MS=Maximum Signal, BS=Background Signal, TCS=Test Compound Signal. The percent inhibition was graphed against the log concentration of the test compound. Known inhibitor compounds as appropriate references for the kinase being assayed were also included on each plate.
(§6) VEGF-R (vascular endothelial growth factor receptor-2) is a fusion protein containing a polyhistidine tag at the N-terminus followed by amino acids 786-1343 of the rat VEGF-R2 kinase domain (GenBank Accession #U93306). Protein Kinase A is the catalytic subunit of cAMP dependent protein kinase-A purified from bovine heart (Upstate Biotech, Lake Placid, N.Y., Cat#14-114). CDK1 (cyclin dependent kinase 1) is isolated from insect cells expressing both the human CDK1 catalytic subunit and its positive regulatory subunit cyclin B (New England Biolabs, Beverly, Mass., Cat. #6020). Casein Kinase-1 is a protein truncation at amino acid 318 of the C-terminal portion of the rat CK1 delta isoform produced in E.coli (New England Biolabs, Beverly, Mass., Cat. #6030). […]

PKC-βII = biological target: T3, PKC-βII (Homo sapiens, UniProt P05771); test: Protein Kinase C Scintillation Proximity Assay (SPA), PKC-βII; assay type: biochemical; details: inhibition value, recombinant human isozyme, 1 μM ATP
T3 construct: purchased PanVera, Madison Wis; host or cells: baculovirus expression vector
T3 sequence (P05771 1-673 isoform P05771-2): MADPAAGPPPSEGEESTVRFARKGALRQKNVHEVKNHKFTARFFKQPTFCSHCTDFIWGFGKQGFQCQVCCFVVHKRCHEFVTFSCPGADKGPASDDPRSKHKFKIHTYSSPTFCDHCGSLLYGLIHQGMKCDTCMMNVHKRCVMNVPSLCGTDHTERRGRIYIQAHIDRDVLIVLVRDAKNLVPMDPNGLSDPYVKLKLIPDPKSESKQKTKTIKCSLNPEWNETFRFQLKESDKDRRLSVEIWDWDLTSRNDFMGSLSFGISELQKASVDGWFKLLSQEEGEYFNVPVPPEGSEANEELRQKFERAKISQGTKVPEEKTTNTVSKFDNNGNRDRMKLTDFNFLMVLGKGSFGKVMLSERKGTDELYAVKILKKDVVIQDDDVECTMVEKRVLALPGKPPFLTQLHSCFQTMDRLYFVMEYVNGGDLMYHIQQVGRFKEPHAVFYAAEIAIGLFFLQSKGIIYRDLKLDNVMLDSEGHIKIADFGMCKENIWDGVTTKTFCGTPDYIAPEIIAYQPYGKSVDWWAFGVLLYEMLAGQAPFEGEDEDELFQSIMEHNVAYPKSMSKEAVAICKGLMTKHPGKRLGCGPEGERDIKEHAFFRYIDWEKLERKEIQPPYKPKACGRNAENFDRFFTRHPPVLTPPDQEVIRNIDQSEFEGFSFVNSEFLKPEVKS
Description: (§7) The binding activity of a compound for Protein Kinase C (PKC) was assessed using a homogeneous Scintillation Proximity Assay according to the procedure below.
The different human PKC isozymes (were obtained from PanVera, Madison Wis. and had been prepared as recombinant enzymes produced from a baculovirus expression vector) were added to a reaction mixture containing a test compound, 20 mM HEPES (pH 7.4), 100 μM CaCl2, 10 mM MgCl2, 100 μg/mL phosphatidylserine, 20 μg/mL diacylglycerol, 1 μM ATP, 0.8 μCi (^33P)ATP, and 5 μg/mL biotinylated substrate peptide (Jing Zhao et al., J. Bio. Chem., 1998, 273, 23072). The reaction was incubated for 15 min at 30° C. Reactions were terminated by the addition of streptavidin-coated SPA beads (Amersham) in a solution containing 1 mM EGTA, 10 mM EDTA and 100 μM ATP. Beads were allowed to settle overnight and the plates read in a Wallac MICROBETA scintillation counter (PerkinElmer Life sciences, Wellesley, Mass.).
Values for inhibition of various PKC isozymes and GSK 3-β by certain compounds of the invention tested in the PKC SPA and GSK 3-β assays are shown in Table 1.

VEGF-R = biological target: T4, VEGF-R (Rattus norvegicus, UniProt O08775); test: Biotinylated Peptide Substrate Assay, VEGF-R; assay type: biochemical; details: read-out: VEGF-R Kinase Assay (IC50 uM)
T4 construct: polyhistidine (N)
T4 sequence (O08775 786-1343): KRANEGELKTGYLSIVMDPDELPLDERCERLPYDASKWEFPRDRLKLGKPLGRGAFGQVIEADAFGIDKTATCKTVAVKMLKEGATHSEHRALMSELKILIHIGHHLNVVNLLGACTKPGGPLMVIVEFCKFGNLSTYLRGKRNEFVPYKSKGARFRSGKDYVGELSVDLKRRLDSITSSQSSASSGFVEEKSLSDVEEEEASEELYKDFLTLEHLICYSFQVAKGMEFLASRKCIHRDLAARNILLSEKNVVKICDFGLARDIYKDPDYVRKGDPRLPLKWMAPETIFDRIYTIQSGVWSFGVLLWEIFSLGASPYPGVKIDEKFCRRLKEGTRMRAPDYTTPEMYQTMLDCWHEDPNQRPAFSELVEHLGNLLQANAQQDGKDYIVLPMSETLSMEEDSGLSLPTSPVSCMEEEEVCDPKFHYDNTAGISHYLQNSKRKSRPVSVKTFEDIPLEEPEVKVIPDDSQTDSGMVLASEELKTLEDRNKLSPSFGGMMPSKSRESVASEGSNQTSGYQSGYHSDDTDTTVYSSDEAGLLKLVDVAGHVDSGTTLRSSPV
Description: as §1, §2, §3, §4, §5, §6

Insulin-R kinase = biological target: T5, Insulin-R kinase (Homo sapiens, UniProt P06213); test: Biotinylated Peptide Substrate Assay, Insulin-R kinase; assay type: biochemical
T5 construct: consists of residues 941-1313 of the cytoplasmic domain of the beta-subunit of the human insulin receptor; purchased BIOMOL, Plymouth Meeting, Pa; SE-195
T5 sequence (P06213 980-1352): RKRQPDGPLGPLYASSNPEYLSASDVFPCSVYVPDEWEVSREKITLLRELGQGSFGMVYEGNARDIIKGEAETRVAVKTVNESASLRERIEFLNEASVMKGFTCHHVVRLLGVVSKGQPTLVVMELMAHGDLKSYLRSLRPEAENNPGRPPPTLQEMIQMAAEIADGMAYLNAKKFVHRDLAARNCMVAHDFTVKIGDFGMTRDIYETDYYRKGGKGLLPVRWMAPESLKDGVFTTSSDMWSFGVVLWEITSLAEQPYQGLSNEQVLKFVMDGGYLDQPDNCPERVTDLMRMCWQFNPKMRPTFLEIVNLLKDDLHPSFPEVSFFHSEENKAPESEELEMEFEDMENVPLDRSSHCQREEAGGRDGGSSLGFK
Description: as §1, §2, §3, §4, §5, §6

PKC α = PKC α (Homo sapiens, UniProt P17252); test: Protein Kinase C Scintillation Proximity Assay (SPA), PKC-α; assay type: biochemical; design: purchased PanVera, Madison Wis; host or cells: baculovirus expression vector; details: inhibition value, recombinant human isozyme, 1 μM ATP
Description: as §7
The reaction was incubated for 15 min at 30° C. Reactions were terminated by the addition of streptavidin-coated SPA beads (Amersham) in a solution containing 1 mM EGTA, 10 mM EDTA and 100 μM ATP. Beads were allowed to settle overnight and the plates read in a Wallac MICROBETA scintillation counter (PerkinElmer Life sciences, Wellesley, Mass.).

T1 sequence (G1T8E2 1-432): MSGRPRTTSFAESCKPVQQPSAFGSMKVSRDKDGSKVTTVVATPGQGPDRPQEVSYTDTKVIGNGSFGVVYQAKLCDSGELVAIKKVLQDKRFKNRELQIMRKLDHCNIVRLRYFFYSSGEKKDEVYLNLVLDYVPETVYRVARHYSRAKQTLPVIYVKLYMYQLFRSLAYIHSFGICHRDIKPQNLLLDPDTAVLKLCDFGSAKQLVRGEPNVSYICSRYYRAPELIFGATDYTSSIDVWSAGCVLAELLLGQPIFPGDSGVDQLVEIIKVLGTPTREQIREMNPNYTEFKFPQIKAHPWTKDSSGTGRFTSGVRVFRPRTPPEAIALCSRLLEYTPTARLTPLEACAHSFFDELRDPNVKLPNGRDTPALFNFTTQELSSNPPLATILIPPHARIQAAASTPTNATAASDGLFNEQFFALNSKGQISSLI

Row | IC50 (GSK 3-β) [nM] | IC50 (EGF-R) [µM] | IC50 (PKC-βII) [nM] | IC50 (VEGF-R) [µM] | IC50 (Insulin-R kinase) [µM] | IC50 (PKC α) [nM] | SMILES
1 | 27 | > 10 | 2410 | > 10 | > 10 |  | O=C1NC(=O)C2=C1c1cn(c3ncccc13)CCOCCOCCOCCn1cc2c2cccnc21 [Cpd 1]
2 | 32 | > 10 | > 100000 | > 10 | > 10 |  | O=C1NC(=O)C2=C1c1cn(c3ncccc13)CCOCCOCCOCCOCCn1cc2c2cccnc21 [Cpd 2]
3 | 128 | > 10 | 519 | 1.2 | > 10 | 5360 | O=C1NC(=O)C2=C1c1cn(c3ccccc13)CCOCCOCCn1cc2c2cccnc21 [Cpd 10]
4 | 15 | > 10 | 72 | 0.889 | > 10 | 1210 | O=C1NC(=O)C2=C1c1cn(c3ccccc13)CCOCCOCCOCCn1cc2c2cccnc21 [Cpd 11]
